Assays:
[1] = Enthalpy of solution by microreaction calorimetry; type: physicochemical; conditions: 25°C
[2] = Enthalpy of solution by microreaction calorimetry; type: physicochemical; conditions: for Molar enthalpy of solution, Methanol ΔsolH (methanol) / Molar enthalpy of solution of Atorvastatin Calcium (ATC) (ΔsolH^1) in the solvent of the solvate / Molar enthalpy of solution in its own solvent, Solvates (ΔsolH^2): 25°C; for Molar enthalpy of solution in its own solvent, Solvates (ΔsolH^2): each solvate in its own solvent of solvation; for Enthalpy of solvation ΔsolvH: calculated by equation 3 from enthalpies of solution of drug and solvate in the solvent of solvation
Method: Molar enthalpy of solution (ΔHsol) was determined in phosphate buffer (pH8) as well as in methanol.
In order to determine the enthalpy associated with the solvation process the enthalpy of solution of a particular solvate was determined in its own solvent.
(3) ΔsolyH=ΔsolH^1−ΔsolH^2
Calorimetric studies were performed on Microreaction calorimeter obtained from Thermal Hazards Technology, UK. Two different solvents, viz, the phosphate buffer (pH 2) and methanol were used to determine the enthalpy of solution and the measurements were performed at 25°C. The size of sample used in this study ranged from 10 to 20 mg and was weighed (Sartorius Model CP225D) into a cylindrical glass tube covered with parafilm on one side. This cylindrical tube was submerged into the ampoule containing the solvent. A plunger with a cap was put from the open end of the tube. The same solvent was put into the reference ampoule. These were put into the sample and reference holes until both rest on the base of the holes. The apparatus was maintained at constant temperature at 25°C (±0.0005°C). The parafilm was shattered mechanically by means of plunger.

[3] = system: Triton induced hyperlipidemia; assay: Hypolipidemic activity in Triton induced hyperlipidemia in rats; type: in vivo, male Wistar rats; conditions: for lipid lowering in triton treated rats (total cholesterol and TG), in words: 30 mg/kg oral gavage; for Total Cholesterol / Triglyceride: Triton treated rats, 30 mg/kg oral gavage 2 h before Triton i.p., plasma 18 h after triton injection
Method: The rats were housed under optimal laboratory conditions, maintained on 12 h light and dark cycle and had free access to food (Hindustan Lever Products, Kolkata, India) and water. Animals were acclimatized to laboratory conditions before the tests. All experiments were carried out between 0900 and 1700 h. The experimental protocols were approved by the Institutional Animal Ethics Committee and conducted according to the Indian National Science Academy guidelines for the use and care of animals. Fifty five male Wistar rats were divided into the following 11 groups containing 5 animals in each group: Atrovastain and various solvates were freshly suspended in 0.5% carboxymethyl cellulose and administered by oral gavage. Two hours later, all groups except control animals received intraperitonial injection of Triton (100 mg/kg). Eighteen hours after triton injection, blood was collected from tail vein. Plasma was separated and stored at −20°C for further biochemical analysis. Total cholesterol and triglyceride were analyzed in plasma samples using diagnostic kits as per manufacturer instructions.

[4] = Desolvation of solvates by DSC and TGA; type: physicochemical; conditions: for Desolvation temperature: DSC desolvation endotherm maximum, 10°C/min; for Enthalpy of desolvation, ΔdesolvH calculated from equation 4: calculated from enthalpies of solution, heat capacities and enthalpy of vapourization; for Enthalpy of desolvation per mole of solvent (binding energy): equation 1 from DSC desolvation enthalpy and TGA mass loss
Excerpt: The desolvation temperatures account for the stability of solvates as the desolvation temperature in all these forms is much higher than the boiling point of the corresponding solvent. The quantitative estimate of the stability of these solvates is established by determining the binding energy for the solvents in all the solvates using equation 1 where the percent mass loss measured over the TG desolvation step of each solvate (ΔmS%) was related to the enthalpy change calculated over the corresponding DSC desolvation endotherm (ΔHSexp).
(1) ΔHS=ΔHSexp×100Δms%×Ms
where ΔHS (J mol^-1) is the enthalpy of desolvation (or binding energy) per mole of the bound solvent, MS is the molecular mass of the solvent.
(4) ΔdesolyH=ΔsolnH^2−ΔsolnH^1−ΔCPTdesoly−25+1/2ΔyapH
. A mass between 2–8 mg was taken into the aluminium pan, covered with lid and sealed. DSC curves were obtained under a nitrogen purge of 50 mL per minute at a heating rate of 10°C per minute with the temperature range from 50-350°C.
Loss of solvent from the samples was characterized by TGA obtained by TA Instruments-Waters LLC, USA. TGA traces were recorded at heating rates of 10°C per minute under a nitrogen purge of 50 ml per minute. Samples with masses between 1–10 mg were analyzed using platinum pan. Mass loss (%) was calculated based on the mass of the original sample.

Compound | Molar enthalpy of solution, Phosphate buffer (pH8) ΔsolH [1] [kJ mol^-1] | Molar enthalpy of solution, Methanol ΔsolH (methanol) [2] [kcal/mol] | lipid lowering in triton treated rats (total cholesterol and TG), in words [3] | Total Cholesterol [3] [mg/dL] | Triglyceride [3] [mg/dL] | Enthalpy of desolvation, ΔdesolvH calculated from equation 4 [4] [kcal/mol] | Enthalpy of desolvation per mole of solvent (binding energy) [4] [kcal/mol] | Enthalpy of desolvation, ΔdesolvH from DSC [4] [kcal/mol] | Molar enthalpy of solution in its own solvent, Solvates (ΔsolH^2) [2] [kcal/mol] | Enthalpy of solvation ΔsolvH [2] [kcal/mol] | further results
CC(C)c1c(C(=O)Nc2ccccc2)c(-c2ccccc2)c(-c2ccc(F)cc2)n1CC[C@@H](O)C[C@@H](O)CC(=O)O [ATC, Atorvastatin calcium, reference compound] | 21.89 | 4.567 | reduced lipid profile | 198 | 169 | – | – | – | – | – | Molar enthalpy of solution of Atorvastatin Calcium (ATC) (ΔsolH^1) in the solvent of the solvate ([2]; solvent of Solvate I (isopropyl alcohol)): -3.231 kcal/mol; Molar enthalpy of solution of Atorvastatin Calcium (ATC) (ΔsolH^1) in the solvent of the solvate ([2]; solvent of Solvate II (THF)): 2.593 kcal/mol; Molar enthalpy of solution of Atorvastatin Calcium (ATC) (ΔsolH^1) in the solvent of the solvate ([2]; solvent of Solvate III (ethanol)): 7.663 kcal/mol; Molar enthalpy of solution of Atorvastatin Calcium (ATC) (ΔsolH^1) in the solvent of the solvate ([2]; solvent of Solvate IV (t-butanol)): 8.329 kcal/mol; Molar enthalpy of solution of Atorvastatin Calcium (ATC) (ΔsolH^1) in the solvent of the solvate ([2]; solvent of Solvate V (methanol)): 3.908 kcal/mol; Molar enthalpy of solution of Atorvastatin Calcium (ATC) (ΔsolH^1) in the solvent of the solvate ([2]; solvent of Solvate VI (acetone + ethanol)): 9.847 kcal/mol; Molar enthalpy of solution of Atorvastatin Calcium (ATC) (ΔsolH^1) in the solvent of the solvate ([2]; solvent of Solvate VII (ethanol + water)): 26.886 kcal/mol; Molar enthalpy of solution of Atorvastatin Calcium (ATC) (ΔsolH^1) in the solvent of the solvate ([2]; solvent of Solvate VIII (1-butanol)): 3.193 kcal/mol
CC(C)c1c(C(=O)Nc2ccccc2)c(-c2ccccc2)c(-c2ccc(F)cc2)n1CC[C@@H](O)C[C@@H](O)CC(=O)[O-].CC(C)c1c(C(=O)Nc2ccccc2)c(-c2ccccc2)c(-c2ccc(F)cc2)n1CC[C@@H](O)C[C@@H](O)CC(=O)[O-].CCO.[Ca+2] [Solvate III] | 5.46 | 0.729 | – | 203 | 172 | 8.219 | 15.14 | 10.68 | -1.82 | – | Desolvation temperature ([4]; listed as III): 90(±8) °C; Desolvation temperature ([4]; listed as Solvate- III): 90.42 °C
C1CCOC1.CC(C)c1c(C(=O)Nc2ccccc2)c(-c2ccccc2)c(-c2ccc(F)cc2)n1CC[C@@H](O)C[C@@H](O)CC(=O)[O-].CC(C)c1c(C(=O)Nc2ccccc2)c(-c2ccccc2)c(-c2ccc(F)cc2)n1CC[C@@H](O)C[C@@H](O)CC(=O)[O-].[Ca+2] [Solvate II] | 14.31 | 2.38 | – | 201 | 170 | 13.66 | 13.19 | 12.3 | -2.706 | -5.299 | Desolvation temperature ([4]; listed as Solvate- II): 98.89 °C; Desolvation temperature ([4]; listed as solvate II): 90(±8) °C
CC(C)(C)O.CC(C)c1c(C(=O)Nc2ccccc2)c(-c2ccccc2)c(-c2ccc(F)cc2)n1CC[C@@H](O)C[C@@H](O)CC(=O)[O-].CC(C)c1c(C(=O)Nc2ccccc2)c(-c2ccccc2)c(-c2ccc(F)cc2)n1CC[C@@H](O)C[C@@H](O)CC(=O)[O-].CC(C)c1c(C(=O)Nc2ccccc2)c(-c2ccccc2)c(-c2ccc(F)cc2)n1CC[C@@H](O)C[C@@H](O)CC(=O)[O-].CC(C)c1c(C(=O)Nc2ccccc2)c(-c2ccccc2)c(-c2ccc(F)cc2)n1CC[C@@H](O)C[C@@H](O)CC(=O)[O-].[Ca+2].[Ca+2] [Solvate IV] | 11.50 | 1.3 | – | 204 | 168 | 18.72 | 32.655 | 18.85 | 0.755 | -7.574 | Desolvation temperature ([4]; listed as IV): 90(±8) °C; Desolvation temperature ([4]; listed as Solvate- IV): 83. 34 °C
CC(C)O.CC(C)c1c(C(=O)Nc2ccccc2)c(-c2ccccc2)c(-c2ccc(F)cc2)n1CC[C@@H](O)C[C@@H](O)CC(=O)[O-].CC(C)c1c(C(=O)Nc2ccccc2)c(-c2ccccc2)c(-c2ccc(F)cc2)n1CC[C@@H](O)C[C@@H](O)CC(=O)[O-].CC(C)c1c(C(=O)Nc2ccccc2)c(-c2ccccc2)c(-c2ccc(F)cc2)n1CC[C@@H](O)C[C@@H](O)CC(=O)[O-].CC(C)c1c(C(=O)Nc2ccccc2)c(-c2ccccc2)c(-c2ccc(F)cc2)n1CC[C@@H](O)C[C@@H](O)CC(=O)[O-].[Ca+2].[Ca+2] [Solvate I] | 2.51 | 0.275 | performed better than pure ATC | 161 | 143 | 6.197 | 33.798 | 5.784 | -5.844 | -2.612 | Desolvation temperature [4]: 84.71 °C
CC(C)c1c(C(=O)Nc2ccccc2)c(-c2ccccc2)c(-c2ccc(F)cc2)n1CC[C@@H](O)C[C@@H](O)CC(=O)[O-].CC(C)c1c(C(=O)Nc2ccccc2)c(-c2ccccc2)c(-c2ccc(F)cc2)n1CC[C@@H](O)C[C@@H](O)CC(=O)[O-].CCCCO.[Ca+2] [Solvate VIII] | – | 0.136 | performed better than pure ATC | 152 | 140 | 7.603 | 14.69 | 6.826 | -1.1 | -4.293 | Molar enthalpy of solution, Phosphate buffer (pH8) ΔsolH ([1]; listed as Solvate- VIII): 1.17 kJ mol^-1; Molar enthalpy of solution, Phosphate buffer (pH8) ΔsolH ([1]; listed as solvate-VIII): 2.475 kJ mol^-1; Desolvation temperature [4]: 119. 5 °C
CC(C)c1c(C(=O)Nc2ccccc2)c(-c2ccccc2)c(-c2ccc(F)cc2)n1CC[C@@H](O)C[C@@H](O)CC(=O)[O-].CC(C)c1c(C(=O)Nc2ccccc2)c(-c2ccccc2)c(-c2ccc(F)cc2)n1CC[C@@H](O)C[C@@H](O)CC(=O)[O-].CC(C)c1c(C(=O)Nc2ccccc2)c(-c2ccccc2)c(-c2ccc(F)cc2)n1CC[C@@H](O)C[C@@H](O)CC(=O)[O-].CC(C)c1c(C(=O)Nc2ccccc2)c(-c2ccccc2)c(-c2ccc(F)cc2)n1CC[C@@H](O)C[C@@H](O)CC(=O)[O-].CCO.O.O.[Ca+2].[Ca+2] [Solvate VII] | 16.98 | 3.04 | – | 202 | 167 | 24.847 | 25.48 | 25.01 | -1.02 | -27.902 | Desolvation temperature ([4]; listed as Solvate-VII): 105.13 °C; Desolvation temperature ([4]; listed as VII): 105.1 °C
